Assay results reported in PubChem BioAssay AID1259407 (Chemical Carcinogenesis Research Information System (CCRIS), 2018).
The source made the active and inactive calls. No rule for the calls is given here.

System: CCRIS mutagenicity, Ames/micronucleus/aberration tests
Assay: CCRIS mutagenicity studies
[1] = Test System: AMES SALMONELLA TYPHIMURIUM, Strain/Indicator: TA98, Metabolic Activation: NONE, Method: PREINCUBATION
[2] = Test System: AMES SALMONELLA TYPHIMURIUM, Strain/Indicator: TA100, Metabolic Activation: NONE, Method: PREINCUBATION
[3] = Test System: AMES SALMONELLA TYPHIMURIUM, Strain/Indicator: TA1535, Metabolic Activation: NONE, Method: PREINCUBATION
[4] = Test System: AMES SALMONELLA TYPHIMURIUM, Strain/Indicator: TA1537, Metabolic Activation: NONE, Method: PREINCUBATION

With `CC[C@H]1OC(=O)[C@H](C)[C@@H](O[C@H]2C[C@@](C)(OC)[C@@H](O)[C@H](C)O2)[C@H](C)[C@@H](O[C@@H]2O[C@H](C)C[C@H](N(C)C)[C@H]2O)[C@](C)(O)C[C@@H](C)C(=O)[C@H](C)[C@@H](O)[C@]1(C)O` the mutagenic call (End Point: AMES SALMONELLA TYPHIMURIUM, Test System: TA98, Metabolic Activation: NONE, Method: STANDARD PLATE) was “inactive; negative”, the mutagenic call (End Point: AMES SALMONELLA TYPHIMURIUM, Test System: TA100, Metabolic Activation: NONE, Method: STANDARD PLATE) was “inactive; negative” and the mutagenic call (End Point: IN VITRO CHROMOSOMAL ABERRATIONS, Test System: CHO CELLS, Metabolic Activation: NONE) was “inactive; negative; testing limited by solubility of the chemical”. The mutagenic call (End Point: IN VITRO CHROMOSOMAL ABERRATIONS, Test System: CHO CELLS, Metabolic Activation: RAT, LIVER, S-9, AROCLOR 1254) was “inactive; negative; testing limited by solubility of the chemical”, the mutagenic call (Test System: AMES SALMONELLA TYPHIMURIUM, Strain/Indicator: TA98, Metabolic Activation: HAMSTER, LIVER, S-9, AROCLOR 1254, Method: PREINCUBATION) was “inactive; negative” and the mutagenic call [1] was “inactive; negative”. The mutagenic call (Test System: AMES SALMONELLA TYPHIMURIUM, Strain/Indicator: TA98, Metabolic Activation: RAT, LIVER, S-9, AROCLOR 1254, Method: PREINCUBATION) was “inactive; negative”, the mutagenic call (Test System: AMES SALMONELLA TYPHIMURIUM, Strain/Indicator: TA100, Metabolic Activation: HAMSTER, LIVER, S-9, AROCLOR 1254, Method: PREINCUBATION) was “inactive; negative” and the mutagenic call [2] was “inactive; negative”. The mutagenic call (Test System: AMES SALMONELLA TYPHIMURIUM, Strain/Indicator: TA100, Metabolic Activation: RAT, LIVER, S-9, AROCLOR 1254, Method: PREINCUBATION) was “inactive; negative”, the mutagenic call (Test System: AMES SALMONELLA TYPHIMURIUM, Strain/Indicator: TA1535, Metabolic Activation: HAMSTER, LIVER, S-9, AROCLOR 1254, Method: PREINCUBATION) was “inactive; negative” and the mutagenic call [3] was “inactive; negative”. For the same molecule, the mutagenic call (Test System: AMES SALMONELLA TYPHIMURIUM, Strain/Indicator: TA1535, Metabolic Activation: RAT, LIVER, S-9, AROCLOR 1254, Method: PREINCUBATION) was “inactive; negative”, the mutagenic call (Test System: AMES SALMONELLA TYPHIMURIUM, Strain/Indicator: TA1537, Metabolic Activation: HAMSTER, LIVER, S-9, AROCLOR 1254, Method: PREINCUBATION) was “inactive; negative” and the mutagenic call [4] was “inactive; negative”. For the same molecule, the mutagenic call (Test System: AMES SALMONELLA TYPHIMURIUM, Strain/Indicator: TA1537, Metabolic Activation: RAT, LIVER, S-9, AROCLOR 1254, Method: PREINCUBATION) was “inactive; negative” and the mutagenic call (Test System: MOUSE LYMPHOMA, Strain/Indicator: L5178Y (TK+/TK-), Metabolic Activation: RAT, LIVER, S-9, AROCLOR 1254, Method: SUSPENSION/PLATE) was “inactive; negative”.

In the case of `CC(=O)Oc1cccc2cccnc12`, the mutagenic call (Test System: AMES SALMONELLA TYPHIMURIUM, Strain/Indicator: TA100, Metabolic Activation: S-9, Method: PREINCUBATION) is reported as “inactive; negative”.

`CC(C)CCC[C@@H](C)[C@H]1CC[C@H]2[C@@H]3C=CC4(OO)C[C@@H](O)CC[C@]4(C)[C@H]3CC[C@]12C` (some centres not stated) was tested, and the mutagenic call [4] was “active; positive”.

`O=C(NCc1ccccc1)C1CO1` (configuration not stated) was tested, and the mutagenic call (Test System: AMES SALMONELLA TYPHIMURIUM, Strain/Indicator: TA100, Metabolic Activation: MOUSE, LIVER, S-9, AROCLOR 1254, Method: STANDARD PLATE) was “active; positive” and the mutagenic call (Test System: AMES SALMONELLA TYPHIMURIUM, Strain/Indicator: TA100, Metabolic Activation: NONE, Method: STANDARD PLATE) was “active; positive”.

In the case of `O=C=NCCCCCCN=C=O`, the mutagenic call (Test System: AMES SALMONELLA TYPHIMURIUM, Strain/Indicator: TA98, Metabolic Activation: NONE, Method: DESICCATOR) is reported as “inactive; negative”, the mutagenic call [1] is reported as “inactive; negative” and the mutagenic call (Test System: AMES SALMONELLA TYPHIMURIUM, Strain/Indicator: TA98, Metabolic Activation: RAT LIVER S-9, AROCLOR 1254 (10%), Method: DESICCATOR) is reported as “inactive; negative”. For the same molecule, the mutagenic call (Test System: AMES SALMONELLA TYPHIMURIUM, Strain/Indicator: TA98, Metabolic Activation: RAT, LIVER, S-9, SODIUM PHENOBARBITAL AND 5,6-BENZOFLAVONE, Method: PREINCUBATION) was “inactive; negative”, the mutagenic call (Test System: AMES SALMONELLA TYPHIMURIUM, Strain/Indicator: TA100, Metabolic Activation: NONE, Method: DESICCATOR) was “inactive; negative” and the mutagenic call [2] was “inactive; negative”. For the same molecule, the mutagenic call (Test System: AMES SALMONELLA TYPHIMURIUM, Strain/Indicator: TA100, Metabolic Activation: RAT LIVER S-9, AROCLOR 1254 (10%), Method: DESICCATOR) was “inactive; negative”, the mutagenic call (Test System: AMES SALMONELLA TYPHIMURIUM, Strain/Indicator: TA100, Metabolic Activation: RAT, LIVER, S-9, SODIUM PHENOBARBITAL AND 5,6-BENZOFLAVONE, Method: PREINCUBATION) was “inactive; negative” and the mutagenic call (Test System: AMES SALMONELLA TYPHIMURIUM, Strain/Indicator: TA102, Metabolic Activation: NONE, Method: PREINCUBATION) was “inactive; negative”. The mutagenic call (Test System: AMES SALMONELLA TYPHIMURIUM, Strain/Indicator: TA102, Metabolic Activation: RAT, LIVER, S-9, SODIUM PHENOBARBITAL AND 5,6-BENZOFLAVONE, Method: PREINCUBATION) was “inactive; negative”, the mutagenic call (Test System: AMES SALMONELLA TYPHIMURIUM, Strain/Indicator: TA104, Metabolic Activation: NONE, Method: PREINCUBATION) was “inactive; negative” and the mutagenic call (Test System: AMES SALMONELLA TYPHIMURIUM, Strain/Indicator: TA104, Metabolic Activation: RAT, LIVER, S-9, SODIUM PHENOBARBITAL AND 5,6-BENZOFLAVONE, Method: PREINCUBATION) was “inactive; negative”. For the same molecule, the mutagenic call (Test System: AMES SALMONELLA TYPHIMURIUM, Strain/Indicator: TA1535, Metabolic Activation: NONE, Method: DESICCATOR) was “inactive; negative”, the mutagenic call [3] was “inactive; negative” and the mutagenic call (Test System: AMES SALMONELLA TYPHIMURIUM, Strain/Indicator: TA1535, Metabolic Activation: RAT LIVER S-9, AROCLOR 1254 (10%), Method: DESICCATOR) was “inactive; negative”. For the same molecule, the mutagenic call (Test System: AMES SALMONELLA TYPHIMURIUM, Strain/Indicator: TA1535, Metabolic Activation: RAT, LIVER, S-9, SODIUM PHENOBARBITAL AND 5,6-BENZOFLAVONE, Method: PREINCUBATION) was “inactive; negative”, the mutagenic call (Test System: AMES SALMONELLA TYPHIMURIUM, Strain/Indicator: TA1537, Metabolic Activation: NONE, Method: DESICCATOR) was “inactive; negative” and the mutagenic call [4] was “inactive; negative”. For the same molecule, the mutagenic call (Test System: AMES SALMONELLA TYPHIMURIUM, Strain/Indicator: TA1537, Metabolic Activation: RAT LIVER S-9, AROCLOR 1254 (10%), Method: DESICCATOR) was “inactive; negative”, the mutagenic call (Test System: AMES SALMONELLA TYPHIMURIUM, Strain/Indicator: TA1537, Metabolic Activation: RAT, LIVER, S-9, SODIUM PHENOBARBITAL AND 5,6-BENZOFLAVONE, Method: PREINCUBATION) was “inactive; negative” and the mutagenic call (Test System: CHINESE HAMSTER OVARY CELLS, Strain/Indicator: CHO/HGPRT/6-THIOGUANINE, Metabolic Activation: NONE, Method: DESICCATOR) was “inactive; negative”. The mutagenic call (Test System: CHINESE HAMSTER OVARY CELLS, Strain/Indicator: CHO/HGPRT/6-THIOGUANINE, Metabolic Activation: RAT LIVER S-9, AROCLOR 1254 (10%), Method: DESICCATOR) was “inactive; negative”, the mutagenic call (Test System: E. COLI, Strain/Indicator: WP2UVRA/PKM101, Metabolic Activation: NONE, Method: PREINCUBATION) was “inactive; negative” and the mutagenic call (Test System: E. COLI, Strain/Indicator: WP2UVRA/PKM101, Metabolic Activation: RAT, LIVER, S-9, SODIUM PHENOBARBITAL AND 5,6-BENZOFLAVONE, Method: PREINCUBATION) was “inactive; negative”. For the same molecule, the mutagenic call (Test System: E. COLI, Strain/Indicator: WP2UVRA, Metabolic Activation: NONE, Method: PREINCUBATION) was “inactive; negative” and the mutagenic call (Test System: E. COLI, Strain/Indicator: WP2UVRA, Metabolic Activation: RAT, LIVER, S-9, SODIUM PHENOBARBITAL AND 5,6-BENZOFLAVONE, Method: PREINCUBATION) was “inactive; negative”.
